Results on 2 molecules are retold here after paper PMC12185792, “Guanylate cyclase activity in moss: revisiting the role of ERECTA-like receptors” (Physiology and Molecular Biology of Plants, 2025).

For data set [1], the target named is T1, PpERL1 (Physcomitrium patens ERECTA-like receptor 1) (Physcomitrium patens, UniProt A0A2K1L2N0).
T1 construct: gene LOC112274326; intracellular fragment 658-1018 (kinase domain with embedded GC motif 877-893) of 1018 residues; N-terminal GST tag kept (pGEX-6P-2), about 66 kDa; E. coli BL21(DE3)pLysS
T1 sequence (A0A2K1L2N0 658-1018): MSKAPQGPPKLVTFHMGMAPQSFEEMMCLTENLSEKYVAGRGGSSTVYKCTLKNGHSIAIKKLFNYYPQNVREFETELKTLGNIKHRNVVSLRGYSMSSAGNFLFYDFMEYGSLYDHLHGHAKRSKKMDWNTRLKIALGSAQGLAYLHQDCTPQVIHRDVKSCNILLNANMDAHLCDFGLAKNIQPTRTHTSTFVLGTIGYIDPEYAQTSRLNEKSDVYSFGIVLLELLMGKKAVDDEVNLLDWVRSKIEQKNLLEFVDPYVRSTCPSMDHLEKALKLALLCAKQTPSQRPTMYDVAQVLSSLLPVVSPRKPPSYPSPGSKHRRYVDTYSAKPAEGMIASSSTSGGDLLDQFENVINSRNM
The data set is described as follows: Kinase-Glo Plus luminescent kinase assay, histone type III. The note with it: 10 μM ATP, 5 mM MgCl2, 1 mM DTT, Tris-HCl pH 7.5, 30 °C; inhibition of kinase domain, possibly via GC domain. In kind it is biochemical.

Data set [2] deals with T2, PpERL1 (Physcomitrium patens ERECTA-like receptor 1) (Physcomitrium patens, UniProt A0A2K1L2N0, K890N).
T2 construct: gene LOC112274326; intracellular fragment 658-1018 (kinase domain with embedded GC motif 877-893) of 1018 residues; N-terminal GST tag kept (pGEX-6P-2), about 66 kDa; E. coli BL21(DE3)pLysS
T2 sequence (A0A2K1L2N0 entry or part of it K890N): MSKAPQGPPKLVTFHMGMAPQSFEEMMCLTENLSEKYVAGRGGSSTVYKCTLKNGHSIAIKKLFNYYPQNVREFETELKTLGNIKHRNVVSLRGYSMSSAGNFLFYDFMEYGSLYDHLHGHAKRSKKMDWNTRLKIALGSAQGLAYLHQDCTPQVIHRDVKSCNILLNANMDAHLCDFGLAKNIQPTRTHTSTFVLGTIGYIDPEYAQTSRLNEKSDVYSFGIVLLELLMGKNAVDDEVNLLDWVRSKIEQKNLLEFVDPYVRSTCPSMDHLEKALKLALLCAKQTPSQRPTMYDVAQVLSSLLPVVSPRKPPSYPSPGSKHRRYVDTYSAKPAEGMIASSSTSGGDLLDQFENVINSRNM
The data set is described as above. The class given is biochemical. The note with it: 10 μM ATP, 5 mM MgCl2, 1 mM DTT, Tris-HCl pH 7.5, 30 °C; inhibition of kinase domain, possibly via GC domain.

Substrate in data set [3]: Nc1nc2c(ncn2[C@@H]2O[C@H](COP(=O)(O)OP(=O)(O)OP(=O)(O)O)[C@@H](O)[C@H]2O)c(=O)[nH]1
The data set is described as follows: guanylate cyclase assay, cGMP by LC-MS/MS. The class given is biochemical, Physcomitrium patens. Particulars: GTP 0.1-3 mM, 5 mM MgCl2, 2.5 mM MnCl2, 1 mM DTT, Tris-HCl pH 7.5, 30 °C, no CaCl2.

For `Nc1nc2c(ncn2[C@@H]2O[C@H](COP(=O)(O)OP(=O)(O)OP(=O)(O)O)[C@@H](O)[C@H]2O)c(=O)[nH]1` [GTP], the “relative kinase activity at 1 mM GTP” value in data set [1] is on record as “adding GTP to the reaction mixture led to a significant decrease in kinase activity”; in data set [2] it was “the presence of GTP resulted in a slight decrease in kinase activity”.

B1: PpERL1 (Physcomitrium patens ERECTA-like receptor 1) (Physcomitrium patens) (protein)
chain: MSKAPQGPPKLVTFHMGMAPQSFEEMMCLTENLSEKYVAGRGGSSTVYKCTLKNGHSIAIKKLFNYYPQNVREFETELKTLGNIKHRNVVSLRGYSMSSAGNFLFYDFMEYGSLYDHLHGHAKRSKKMDWNTRLKIALGSAQGLAYLHQDCTPQVIHRDVKSCNILLNANMDAHLCDFGLAKNIQPTRTHTSTFVLGTIGYIDPEYAQTSRLNEKSDVYSFGIVLLELLMGKKAVDDEVNLLDWVRSKIEQKNLLEFVDPYVRSTCPSMDHLEKALKLALLCAKQTPSQRPTMYDVAQVLSSLLPVVSPRKPPSYPSPGSKHRRYVDTYSAKPAEGMIASSSTSGGDLLDQFENVINSRNM
notes: intracellular fragment 658-1018 (kinase domain with embedded GC motif 877-893) of 1018 residues; N-terminal GST tag kept (pGEX-6P-2), about 66 kDa; E. coli BL21(DE3)pLysS
Consider B1, for which the Km in data set [3] came out at 609.8 µM.
